From ChEMBL document CHEMBL1128598, “Potential anxiolytic agents. Pyrido[1,2-a]benzimidazoles: a new structural class of ligands for the benzodiazepine binding site on GABA-A receptors” (J Med Chem, 1995)

Experiments:
[1] = biological target: GABA-A receptor; anion channel; test: Binding affinity against benzodiazepine site of gamma-aminobutyric-acid A receptor of rat cerebral cortex by using [3H]flunitrazepam in the absence of GABA.; type: tissue-based
Rattus norvegicus = test: Minimum effective dose as dose required to release behavior in suppressed rats by conflict test after intraperitoneal administration.; type: functional; conditions: ip, read-out: MED
[2] = biological target: GABA-A receptor; anion channel; test: Binding affinity against benzodiazepine site of gamma-aminobutyric-acid A receptor of rat cerebral cortex by using [3H]flunitrazepam in the presence of GABA 1 mM.; type: tissue-based
Mus musculus = test: The ability to block the tonic-clonic component of seizures induced by metrazole in mice after intraperitoneal administration.; type: functional; conditions: ip
[3] = biological target: GABA-A receptor; anion channel (Rattus norvegicus) (UniProt O09028+P15431+P18506+P18508+P19969+P20236+P23574+P23576+P28471+P28473+P30191+P62813+P63079+P63138+Q91ZM7+Q9ES14); test: GABA shift as the ratio of IC50 (no GABA) to that of IC50 (GABA); GABA shift; type: protein-complex assay

SMILES	IC50 [1] [nM]	minimal effective dose (Rattus norvegicus) [mg/kg]	IC50 [2] [nM]	ED50 (Mus musculus) [mg/kg]	GS [3]
O=C(Nc1ccccc1F)c1c(O)ccn2c1nc1ccccc12	0.23	0.1	0.11	0.088	2.1
O=C(Nc1ccc(Cl)cc1)C1=C(O)CCn2c1nc1ccccc12	620	1	265	8.9	2.3
O=C(NC1CC1)C1=C(O)CCn2c1nc1ccccc12	16	> 10	18	> 10	0.87
O=C1CCN2C(=C1C(=O)Nc1ccccc1)N(Cc1ccccc1)c1ccccc12	12	10	2.7	1.4	4.6
CCN1C2=C(C(=O)Nc3ccccc3)C(=O)CCN2c2ccccc21	2.1	0.3	1.4	0.083	1.6
CN(C(=O)C1=C(O)CCn2c1nc1ccccc12)c1ccccc1	> 10000	> 10	> 10000	> 10	–
COc1cccc(NC(=O)C2=C(O)CCn3c2nc2ccccc23)c1	26	5	16	> 10	1.6
CN1C2=C(C(=O)Nc3ccccc3F)C(=O)CCN2c2ccccc21	0.42	0.03	0.26	0.019	1.6
COc1ccc(NC(=O)C2=C(O)CCn3c2nc2ccccc23)cc1	41	10	16	2	2.6
O=C(Nc1ccccc1F)C1=C(O)CCn2c1nc1ccccc12	1.7	1	1.4	0.16	1.2
CCO/C(O)=C1\C(=O)CCn2c1nc1ccccc12	675	–	840	> 10	0.68
OC1=C(/C(S)=N/c2ccccc2)c2nc3ccccc3n2CC1	360	> 10	320	> 10	1.1
O=C(Nc1ccccc1Cl)C1=C(O)CCn2c1nc1ccccc12	12	10	5.3	0.95	2.3
COc1ccccc1NC(=O)C1=C(O)CCn2c1nc1ccccc12	990	> 10	940	> 10	1.1
O=C(Nc1ccccc1)c1c(O)ccn2c1nc1ccccc12	24	10	14	0.39	1.7
NC(=O)C1=C(O)CCn2c1nc1ccccc12	2400	10	6000	> 30	0.4
O=C(Nc1c(F)cccc1F)C1=C(O)CCn2c1nc1ccccc12	2.8	0.1	1.7	0.85	1.6
O=C(Nc1cccc(Cl)c1)C1=C(O)CCn2c1nc1ccccc12	120	> 10	95	> 30	1.3
CN1C2=C(C(=O)Nc3ccccc3)C(=O)CCN2c2ccccc21	5.8	1	2.1	0.13	2.8
O=C1CCn2c(nc3ccccc32)/C1=C(\O)Sc1ccccc1	29	> 10	26	> 30	1.1
O=C(NC1CCCCC1)C1=C(O)CCn2c1nc1ccccc12	140	10	72	3	2
O=C(Nc1c(Cl)cccc1Cl)C1=C(O)CCn2c1nc1ccccc12	320	> 10	170	> 30	1.9
O=C1CCN2C(=C1C(=O)Nc1ccccc1)Nc1ccccc12	9.1	10	5.9	5.2	1.5
O=C1CCn2c(nc3ccccc32)/C1=C(\O)Oc1ccccc1	200	> 10	150	9.9	1.4
CN1C(=O)CN=C(c2ccccc2)c2cc(Cl)ccc21 [DIAZEPAM]	–	5	–	0.11	2.2
O=C(NC1CCC1)C1=C(O)CCn2c1nc1ccccc12	30	10	25	> 30	1.2
